Results published in patent US20260193227A1, “THERAPEUTIC COMPOUNDS AND METHODS” (UNIVERSITY OF IOWA RESEARCH FOUNDATION, priority 2022, published 2026).

Target: T1, RAD52 IB mutant (K152A/R153A) (Homo sapiens, UniProt P43351, K152A/R153A)
T1 construct: 6xHis; made in house
T1 sequence (P43351 1-418 K152A/R153A): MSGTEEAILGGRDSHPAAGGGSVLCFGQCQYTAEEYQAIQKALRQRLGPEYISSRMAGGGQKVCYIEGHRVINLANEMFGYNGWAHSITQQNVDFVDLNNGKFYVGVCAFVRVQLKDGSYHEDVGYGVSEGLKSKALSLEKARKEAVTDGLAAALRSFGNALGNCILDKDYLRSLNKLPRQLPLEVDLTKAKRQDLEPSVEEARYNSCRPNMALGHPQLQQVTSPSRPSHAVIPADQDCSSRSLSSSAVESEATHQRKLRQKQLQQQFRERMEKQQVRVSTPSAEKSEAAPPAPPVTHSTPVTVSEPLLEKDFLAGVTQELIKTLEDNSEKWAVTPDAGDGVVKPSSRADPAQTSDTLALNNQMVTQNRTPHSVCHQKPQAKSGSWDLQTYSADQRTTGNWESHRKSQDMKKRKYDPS
Assay: FRET-based inhibition of ssDNA binding, inner binding defective RAD52 mutant
Protocol: Proteins: The 6×His-tagged human RAD52 proteins (wild type and mutants) and untagged human RPA were expressed and purified as previously described in (Hengel S R, eLife. 2016; 5; Grimme J M, et al., Nucleic Acids Res. 2010; 38(9):2917-30; and Henricksen L A, et al., The Journal of biological chemistry. 1994; 269(15):11121-32). RPA and RAD52 protein concentrations were determined by measuring absorbance at 280 nm using extinction coefficients of 88,830 M^−1 cm^−1 and 40,470 M^−1 cm^−1, respectively.
FRET-based DNA binding and inhibition assays: FRET-based that monitor the RAD52-ssDNA, RPA-ssDNA and RAD52-RPA-ssDNA binding were carried out as previously described (Hengel S R, eLife. 2016; 5; Grimme J M, et al., Nucleic Acids Res. 2010; 38(9):2917-30; and Grimme J M, Spies M. FRET-based assays to monitor DNA binding and annealing by Rad52 recombination mediator protein. Methods in molecular biology (Clifton, NJ). 2011; 745:463-83) using Cary Eclipse Spectrofluorimeter (Agilent) at 25° C., in 5 mm quartz cuvettes, and in buffer containing 30 mM Tris-Acetate (pH 7.5) and 1 mM DTT. Cy3 dye was excited at 530 nm and its emission was monitored at 565 nm. Emission of Cy5 acceptor fluorophore excited through the energy transfer from Cy3 donor is monitored at 660 nm simultaneously with emission of Cy3 dye. […]
Spectral properties of many compounds overlapped with the Cy3 and Cy5 fluorescence. […]

Compound | inhibition of ssDNA binding to IB mutant RAD52
O=C(Cn1cccc([N+](=O)[O-])c1=O)c1c[nH]c2ccccc12 [Example 1] | able to inhibit
COc1ccccc1NS(=O)(=O)c1cc(C(=O)O)ccc1C [Example 8] | able to inhibit
